Organism: Rattus norvegicus
Assay: Open TG-GATES - Regimen: Single
Format: toxicity, organism-based, Sprague-Dawley
Design: regimen Single, gender Male, age 6 weeks
Details: in vivo, po, 300 mg/kg, route gavage, dose level Middle; for APTT / Bas / Eos / Fbg / Hb / Ht / Lym / MCH / MCHC / MCV / Mono / Neu / PT / Plat / RBC / Ret / WBC: tissue Blood; for KIDNEY_L / KIDNEY_R / KIDNEY_TOTAL: tissue Kidney; for LIVER: tissue Liver; for A/G / ALP / ALT / AST / BUN / CRE / Ca / Cl / DBIL / GLC / IP / K / LDH / Na / PL / RALB / TBIL / TC / TG / TP / gamma-GTP: tissue Plasma

## CCOC(=O)CCC(=O)O[C@H]1[C@H](O[C@@H]2[C@@H](C)[C@H](O[C@H]3C[C@@](C)(OC)[C@@H](O)[C@H](C)O3)[C@@H](C)C(=O)O[C@H](CC)[C@@](C)(O)[C@H](O)[C@@H](C)C(=O)[C@H](C)C[C@@]2(C)O)O[C@H](C)C[C@@H]1N(C)C [ERYTHROMYCIN ETHYLSUCCINATE]
3 h
  TERMINAL_BW: 220.4 g
  APTT: 21.7 s
  Bas: 0%
  Eos: 1%
  Fbg: 294.4 mg/dL
  Hb: 12.8 g/dL
  Ht: 38.6%
  Lym: 75.4%
  MCH: 21.2 pg
  MCHC: 33.2%
  MCV: 63.8 fL
  Mono: 2.6%
  Neu: 19.8%
  PT: 15.7 s
  Plat: 123.6 x10_4/uL
  RBC: 606.2 x10_4/ul
  Ret: 7.9%
  WBC: 80.1 x10_2/uL
  KIDNEY_L: 1 g
  KIDNEY_R: 1 g
  KIDNEY_TOTAL: 2.1 g
  LIVER: 10 g
  A/G: 1.2
  ALP: 1689.6 IU/L
  ALT: 42.4 IU/L
  AST: 74.2 IU/L
  BUN: 11.6 mg/dL
  CRE: 0.2 mg/dL
  Ca: 10.5 mg/dL
  Cl: 103.8 meq/L
  DBIL: 0.004 mg/dL
  GLC: 179 mg/dL
  IP: 9.1 mg/dL
  K: 4.1 meq/L
  LDH: 141 IU/L
  Na: 138.6 meq/L
  PL: 149 mg/dL
  RALB: 2.9 g/dL
  TBIL: 0.026 mg/dL
  TC: 76.4 mg/dL
  TG: 66.4 mg/dL
  TP: 5.3 g/dL
  gamma-GTP: 1 IU/L
6 h
  TERMINAL_BW: 216.3 g
  APTT: 22.3 s
  Bas: 0%
  Eos: 0.8%
  Fbg: 318.4 mg/dL
  Hb: 13.1 g/dL
  Ht: 39.8%
  Lym: 77.8%
  MCH: 20.8 pg
  MCHC: 32.8%
  MCV: 63.5 fL
  Mono: 3.8%
  Neu: 16.4%
  PT: 15.7 s
  Plat: 115 x10_4/uL
  RBC: 627.8 x10_4/ul
  Ret: 8.7%
  WBC: 87.9 x10_2/uL
  KIDNEY_L: 1 g
  KIDNEY_R: 1 g
  KIDNEY_TOTAL: 2 g
  LIVER: 9.2 g
  A/G: 1.2
  ALP: 1767.2 IU/L
  ALT: 43.4 IU/L
  AST: 72.8 IU/L
  BUN: 10.8 mg/dL
  CRE: 0.2 mg/dL
  Ca: 10.6 mg/dL
  Cl: 104 meq/L
  DBIL: 0 mg/dL
  GLC: 180 mg/dL
  IP: 10.1 mg/dL
  K: 4.2 meq/L
  LDH: 160.2 IU/L
  Na: 138.2 meq/L
  PL: 140 mg/dL
  RALB: 2.9 g/dL
  TBIL: 0.032 mg/dL
  TC: 75.6 mg/dL
  TG: 50.6 mg/dL
  TP: 5.4 g/dL
  gamma-GTP: 1.2 IU/L
9 h
  TERMINAL_BW: 210.5 g
  APTT: 22.3 s
  Bas: 0%
  Eos: 1.2%
  Fbg: 318.4 mg/dL
  Hb: 13.4 g/dL
  Ht: 40.5%
  Lym: 79%
  MCH: 20.8 pg
  MCHC: 33%
  MCV: 62.9 fL
  Mono: 2.6%
  Neu: 15.8%
  PT: 15.6 s
  Plat: 125.3 x10_4/uL
  RBC: 645.4 x10_4/ul
  Ret: 8%
  WBC: 77.8 x10_2/uL
  KIDNEY_L: 1 g
  KIDNEY_R: 1 g
  KIDNEY_TOTAL: 2 g
  LIVER: 8.8 g
  A/G: 1.2
  ALP: 1386.8 IU/L
  ALT: 33.8 IU/L
  AST: 62.6 IU/L
  BUN: 10 mg/dL
  CRE: 0.2 mg/dL
  Ca: 10.5 mg/dL
  Cl: 105.2 meq/L
  DBIL: 0 mg/dL
  GLC: 174.4 mg/dL
  IP: 9.4 mg/dL
  K: 4.2 meq/L
  LDH: 170.6 IU/L
  Na: 138.8 meq/L
  PL: 136 mg/dL
  RALB: 3 g/dL
  TBIL: 0.03 mg/dL
  TC: 75.2 mg/dL
  TG: 49.8 mg/dL
  TP: 5.5 g/dL
  gamma-GTP: 1.2 IU/L
24 h
  TERMINAL_BW: 226.7 g
  APTT: 20.4 s
  Bas: 0%
  Eos: 1%
  Fbg: 319.8 mg/dL
  Hb: 13.7 g/dL
  Ht: 41.1%
  Lym: 85%
  MCH: 21.1 pg
  MCHC: 33.4%
  MCV: 63.3 fL
  Mono: 2.4%
  Neu: 10.8%
  PT: 16 s
  Plat: 117.1 x10_4/uL
  RBC: 649.4 x10_4/ul
  Ret: 7%
  WBC: 88.2 x10_2/uL
  KIDNEY_L: 1 g
  KIDNEY_R: 1 g
  KIDNEY_TOTAL: 2 g
  LIVER: 9.8 g
  A/G: 1.2
  ALP: 1484 IU/L
  ALT: 37.4 IU/L
  AST: 69.6 IU/L
  BUN: 15.4 mg/dL
  CRE: 0.1 mg/dL
  Ca: 10.4 mg/dL
  Cl: 106.8 meq/L
  DBIL: 0.002 mg/dL
  GLC: 195.4 mg/dL
  IP: 8.1 mg/dL
  K: 4.3 meq/L
  LDH: 174.8 IU/L
  Na: 142 meq/L
  PL: 135.2 mg/dL
  RALB: 2.9 g/dL
  TBIL: 0.016 mg/dL
  TC: 75.2 mg/dL
  TG: 87.6 mg/dL
  TP: 5.4 g/dL
  gamma-GTP: 1.2 IU/L

Source: ChEMBL document CHEMBL3885861, “Open TG-GATES”
